Assay results published in PubChem BioAssay (NCI).
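Method: 48-hour compound exposure of cells in 96-well plates, five concentrations, linear interpolation of endpoints. GI50: concentration for 50% inhibition of growth. TGI: concentration producing complete growth inhibition.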

Tests used:
Assay in all cases: NCI tumour cell line growth inhibition, 48 h
SK-OV-3 ovarian = tested on: SK-OV-3 ovarian
RXF 393 renal = tested on: RXF 393 renal
SN12C renal = tested on: SN12C renal
HT29 colon = tested on: HT29 colon
MDA-MB-231 breast = tested on: MDA-MB-231 breast
DU-145 prostate = tested on: DU-145 prostate
OVCAR-8 ovarian = tested on: OVCAR-8 ovarian
HCT-116 colon = tested on: HCT-116 colon
HCC-2998 colon = tested on: HCC-2998 colon
OVCAR-3 ovarian = tested on: OVCAR-3 ovarian
IGROV1 ovarian = tested on: IGROV1 ovarian
KM12 colon = tested on: KM12 colon
NCI-H226 lung = tested on: NCI-H226 lung
K-562 leukemia = tested on: K-562 leukemia
MALME-3M melanoma = tested on: MALME-3M melanoma
SNB-19 CNS = tested on: SNB-19 CNS
SF-295 CNS = tested on: SF-295 CNS
786-0 renal = tested on: 786-0 renal
CAKI-1 renal = tested on: CAKI-1 renal
HOP-92 NSCLC = tested on: HOP-92 NSCLC
SW-620 colon = tested on: SW-620 colon
RPMI-8226 leukemia = tested on: RPMI-8226 leukemia
OVCAR-5 ovarian = tested on: OVCAR-5 ovarian
SK-MEL-28 melanoma = tested on: SK-MEL-28 melanoma
T-47D breast = tested on: T-47D breast
HS 578T breast = tested on: HS 578T breast
CCRF-CEM leukemia = tested on: CCRF-CEM leukemia
MCF7 breast = tested on: MCF7 breast
SK-MEL-2 melanoma = tested on: SK-MEL-2 melanoma
SF-539 CNS = tested on: SF-539 CNS
SK-MEL-5 melanoma = tested on: SK-MEL-5 melanoma
HOP-62 NSCLC = tested on: HOP-62 NSCLC
COLO 205 colon = tested on: COLO 205 colon
U251 CNS = tested on: U251 CNS
NCI-H522 lung = tested on: NCI-H522 lung
NCI/ADR-RES ovarian = tested on: NCI/ADR-RES ovarian
SF-268 CNS = tested on: SF-268 CNS
NCI-H23 lung = tested on: NCI-H23 lung
HCT-15 colon = tested on: HCT-15 colon
UACC-62 melanoma = tested on: UACC-62 melanoma
MOLT-4 leukemia = tested on: MOLT-4 leukemia
ACHN renal = tested on: ACHN renal
TK-10 renal = tested on: TK-10 renal
MDA-MB-435 = tested on: MDA-MB-435
NCI-H460 lung = tested on: NCI-H460 lung
A549 NSCLC = tested on: A549 NSCLC
HL-60(TB) leukemia = tested on: HL-60(TB) leukemia
A498 renal = tested on: A498 renal
SR leukemia = tested on: SR leukemia
M14 melanoma = tested on: M14 melanoma
SNB-75 CNS = tested on: SNB-75 CNS
UACC-257 melanoma = tested on: UACC-257 melanoma
UO-31 renal = tested on: UO-31 renal
LOX IMVI melanoma = tested on: LOX IMVI melanoma
OVCAR-4 ovarian = tested on: OVCAR-4 ovarian
BT-549 breast = tested on: BT-549 breast
PC-3 prostate = tested on: PC-3 prostate

COc1cccc(C2=C(c3cn(C)c4ccccc34)C(=O)NC2=O)c1 was tested, and the GI50 (SK-OV-3 ovarian) was 12.7 µM, the TGI (SK-OV-3 ovarian) was > 25 µM and the GI50 (RXF 393 renal) was 6.43 µM. The TGI (RXF 393 renal) was > 25 µM, the GI50 (SN12C renal) was 12.5 µM and the TGI (SN12C renal) was > 25 µM. For the same molecule, the GI50 (HT29 colon) was 7.96 µM, the TGI (HT29 colon) was > 25 µM and the GI50 (MDA-MB-231 breast) was 17.4 µM. For the same molecule, the TGI (MDA-MB-231 breast) was > 25 µM, the GI50 (DU-145 prostate) was > 25 µM and the TGI (DU-145 prostate) was > 25 µM. The GI50 (OVCAR-8 ovarian) was 8.25 µM, the TGI (OVCAR-8 ovarian) was > 25 µM and the GI50 (HCT-116 colon) was 7.26 µM. For the same molecule, the TGI (HCT-116 colon) was > 25 µM, the GI50 (HCC-2998 colon) was > 22.1 µM and the TGI (HCC-2998 colon) was > 25 µM. For the same molecule, the GI50 (OVCAR-3 ovarian) was 9.05 µM, the TGI (OVCAR-3 ovarian) was > 25 µM and the GI50 (IGROV1 ovarian) was 21.8 µM. The TGI (IGROV1 ovarian) was > 25 µM, the GI50 (KM12 colon) was 8.45 µM and the TGI (KM12 colon) was > 25 µM. For the same molecule, the GI50 (NCI-H226 lung) was 7.96 µM, the TGI (NCI-H226 lung) was > 25 µM and the GI50 (K-562 leukemia) was 7.93 µM. The TGI (K-562 leukemia) was > 25 µM, the GI50 (MALME-3M melanoma) was 14.2 µM and the TGI (MALME-3M melanoma) was > 25 µM. The GI50 (SNB-19 CNS) was > 25 µM, the TGI (SNB-19 CNS) was > 25 µM and the GI50 (SF-295 CNS) was 11 µM. The TGI (SF-295 CNS) was > 25 µM, the GI50 (786-0 renal) was 13.4 µM and the TGI (786-0 renal) was > 25 µM. The GI50 (CAKI-1 renal) was 7.9 µM, the TGI (CAKI-1 renal) was > 25 µM and the GI50 (HOP-92 NSCLC) was > 25 µM. The TGI (HOP-92 NSCLC) was > 25 µM, the GI50 (SW-620 colon) was 9.13 µM and the TGI (SW-620 colon) was > 25 µM. The GI50 (RPMI-8226 leukemia) was 14.1 µM, the TGI (RPMI-8226 leukemia) was > 25 µM and the GI50 (OVCAR-5 ovarian) was > 25 µM. For the same molecule, the TGI (OVCAR-5 ovarian) was > 25 µM, the GI50 (SK-MEL-28 melanoma) was > 21.7 µM and the TGI (SK-MEL-28 melanoma) was > 25 µM. The GI50 (T-47D breast) was 6.82 µM, the TGI (T-47D breast) was > 25 µM and the GI50 (HS 578T breast) was 4.8 µM. The TGI (HS 578T breast) was > 25 µM, the GI50 (CCRF-CEM leukemia) was 9.01 µM and the TGI (CCRF-CEM leukemia) was > 25 µM. For the same molecule, the GI50 (MCF7 breast) was 6.35 µM, the TGI (MCF7 breast) was > 25 µM and the GI50 (SK-MEL-2 melanoma) was 8.79 µM. The TGI (SK-MEL-2 melanoma) was > 25 µM, the GI50 (SF-539 CNS) was 16.5 µM and the TGI (SF-539 CNS) was > 25 µM. The GI50 (SK-MEL-5 melanoma) was 4.61 µM, the TGI (SK-MEL-5 melanoma) was 10.1 µM and the GI50 (HOP-62 NSCLC) was > 22.8 µM. For the same molecule, the TGI (HOP-62 NSCLC) was > 25 µM, the GI50 (COLO 205 colon) was 9.92 µM and the TGI (COLO 205 colon) was > 25 µM. For the same molecule, the GI50 (U251 CNS) was 10.9 µM, the TGI (U251 CNS) was > 25 µM and the GI50 (NCI-H522 lung) was 6.35 µM. For the same molecule, the TGI (NCI-H522 lung) was 25 µM, the GI50 (NCI/ADR-RES ovarian) was 8.43 µM and the TGI (NCI/ADR-RES ovarian) was > 25 µM. For the same molecule, the GI50 (SF-268 CNS) was 16.3 µM, the TGI (SF-268 CNS) was > 25 µM and the GI50 (NCI-H23 lung) was 13.9 µM. The TGI (NCI-H23 lung) was > 25 µM, the GI50 (HCT-15 colon) was 5.57 µM and the TGI (HCT-15 colon) was > 25 µM. For the same molecule, the GI50 (UACC-62 melanoma) was 11.5 µM, the TGI (UACC-62 melanoma) was > 25 µM and the GI50 (MOLT-4 leukemia) was 8.54 µM. For the same molecule, the TGI (MOLT-4 leukemia) was > 25 µM, the GI50 (ACHN renal) was 7.76 µM and the TGI (ACHN renal) was > 25 µM. For the same molecule, the GI50 (TK-10 renal) was 13.3 µM, the TGI (TK-10 renal) was > 25 µM and the GI50 (MDA-MB-435) was 6.38 µM. For the same molecule, the TGI (MDA-MB-435) was > 25 µM, the GI50 (NCI-H460 lung) was 13.7 µM and the TGI (NCI-H460 lung) was > 25 µM. The GI50 (A549 NSCLC) was 10.8 µM, the TGI (A549 NSCLC) was > 25 µM and the GI50 (HL-60(TB) leukemia) was 11.2 µM. For the same molecule, the TGI (HL-60(TB) leukemia) was > 25 µM, the GI50 (A498 renal) was 3.09 µM and the TGI (A498 renal) was > 25 µM. The GI50 (SR leukemia) was 5.91 µM, the TGI (SR leukemia) was > 25 µM and the GI50 (M14 melanoma) was 18.9 µM. The TGI (M14 melanoma) was > 25 µM, the GI50 (SNB-75 CNS) was 1320 nM and the TGI (SNB-75 CNS) was > 25 µM. For the same molecule, the GI50 (UACC-257 melanoma) was 15.7 µM, the TGI (UACC-257 melanoma) was > 25 µM and the GI50 (UO-31 renal) was 10.8 µM. The TGI (UO-31 renal) was > 25 µM, the GI50 (LOX IMVI melanoma) was 13 µM and the TGI (LOX IMVI melanoma) was > 25 µM. For the same molecule, the GI50 (OVCAR-4 ovarian) was 9.61 µM, the TGI (OVCAR-4 ovarian) was > 25 µM and the GI50 (BT-549 breast) was 11.9 µM. For the same molecule, the TGI (BT-549 breast) was > 25 µM, the GI50 (PC-3 prostate) was 10.2 µM and the TGI (PC-3 prostate) was > 25 µM.
